Results taken from PubChem BioAssay AID1963852 (Molecular Pharmacology Branch, DTP, NCI, 2024).

Tested on: 282377-053-R-J1-PDC complex spheroid viability
Test: Anticancer human tumor 282377-053-R-J1-PDC patient-derived colon adenocarcinoma cell line growth inhibition [POLQ]
Settings: for IC50: curve of first compound; for viability, T/C: stronger effect = lower value; active means viability on the fitted dose curve at most 10% of control; inactive means the rest
Method in brief: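 Growth inhibition in 3D: complex spheroids (tumor PDC, HUVEC, MSC) treated with POLQ inhibitor combinations; where Cmax unknown, highest tested concentration 10 microM, except SN-38 at 1 microM.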

[1] = second compound 0.0316 µM, first compound 0.0316 µM
[2] = second compound 0.0316 µM, first compound 0.1 µM
[3] = second compound 0.0316 µM, first compound 0.316 µM
[4] = second compound 0.0316 µM, first compound 1 µM
[5] = second compound 0.0316 µM, first compound 3.16 µM
[6] = second compound 0.0316 µM, first compound 10 µM
[7] = second compound 0.1 µM, first compound 0.0316 µM
[8] = second compound 0.1 µM, first compound 0.1 µM
[9] = second compound 0.1 µM, first compound 0.316 µM
[10] = second compound 0.1 µM, first compound 1 µM
[11] = second compound 0.1 µM, first compound 3.16 µM
[12] = second compound 0.1 µM, first compound 10 µM
[13] = second compound 0.316 µM, first compound 0.0316 µM
[14] = second compound 0.316 µM, first compound 0.1 µM
[15] = second compound 0.316 µM, first compound 0.316 µM
[16] = second compound 0.316 µM, first compound 1 µM
[17] = second compound 0.316 µM, first compound 3.16 µM
[18] = second compound 0.316 µM, first compound 10 µM
[19] = second compound 1 µM, first compound 0.0316 µM
[20] = second compound 1 µM, first compound 0.1 µM
[21] = second compound 1 µM, first compound 0.316 µM
[22] = second compound 1 µM, first compound 1 µM
[23] = second compound 1 µM, first compound 3.16 µM
[24] = second compound 1 µM, first compound 10 µM
[25] = second compound 3.16 µM, first compound 0.0316 µM
[26] = second compound 3.16 µM, first compound 0.1 µM
[27] = second compound 3.16 µM, first compound 0.316 µM
[28] = second compound 3.16 µM, first compound 1 µM
[29] = second compound 3.16 µM, first compound 3.16 µM
[30] = second compound 3.16 µM, first compound 10 µM
[31] = second compound 10 µM, first compound 0.0316 µM
[32] = second compound 10 µM, first compound 0.1 µM
[33] = second compound 10 µM, first compound 0.316 µM
[34] = second compound 10 µM, first compound 1 µM
[35] = second compound 10 µM, first compound 3.16 µM
[36] = second compound 10 µM, first compound 10 µM
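Further: spheroids exposed to compounds for seven days.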
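Wherever viability, T/C is given: 100% = DMSO vehicle control viability.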

COc1cc(C2c3cc4c(cc3C(OC3OC5COC(C)OC5C(O)C3O)C3COC(=O)C23)OCO4)cc(OC)c1O (centres undefined) + COC1C(OC(N)=O)C(O)C(Oc2ccc3c(O)c(NC(=O)c4ccc(O)c(CC=C(C)C)c4)c(=O)oc3c2C)OC1(C)C
8.39 µM: IC50 (second compound 1 µM)
inactive: viability, T/C [1] 95.7% | viability, T/C [2] 111% | viability, T/C [3] 97.1% | viability, T/C [4] 80% | viability, T/C [5] 78.3% | viability, T/C [6] 49.5% | viability, T/C [7] 75.8% | viability, T/C [8] 92.8% | viability, T/C [9] 102% | viability, T/C [10] 90.7% | viability, T/C [11] 67.9% | viability, T/C [12] 53.5% | viability, T/C [13] 101% | viability, T/C [14] 80.1% | viability, T/C [15] 85.3% | viability, T/C [16] 77% | viability, T/C [17] 73.8% | viability, T/C [18] 46% | viability, T/C [19] 89% | viability, T/C [20] 86.8% | viability, T/C [21] 86% | viability, T/C [22] 81.1% | viability, T/C [23] 77.3% | viability, T/C [24] 45% | viability, T/C [25] 76.5% | viability, T/C [26] 96.1% | viability, T/C [27] 97.2% | viability, T/C [28] 89.8% | viability, T/C [29] 70.1% | viability, T/C [30] 51.7% | viability, T/C [31] 87.4% | viability, T/C [32] 83.2% | viability, T/C [33] 118% | viability, T/C [34] 68.5% | viability, T/C [35] 70.3% | viability, T/C [36] 53%
> 10 µM: IC50 (second compound 0.0316 µM) | IC50 (second compound 0.1 µM) | IC50 (second compound 3.16 µM) | IC50 (second compound 10 µM)
9.29 µM: IC50 (second compound 0.316 µM)

COc1cc2cc(C(=O)CCC(=O)O)sc2cc1OC + Cc1cccc(N(C)C(=O)C2C(O)CCN2c2nc(C)cc(C(F)(F)F)c2C#N)c1
inactive: viability, T/C [1] 106% | viability, T/C [2] 112% | viability, T/C [3] 101% | viability, T/C [4] 106% | viability, T/C [5] 109% | viability, T/C [6] 104% | viability, T/C [7] 112% | viability, T/C [8] 107% | viability, T/C [9] 102% | viability, T/C [10] 95.8% | viability, T/C [11] 115% | viability, T/C [12] 89.4% | viability, T/C [13] 119% | viability, T/C [14] 107% | viability, T/C [15] 113% | viability, T/C [16] 97% | viability, T/C [17] 107% | viability, T/C [18] 95.1% | viability, T/C [19] 116% | viability, T/C [20] 103% | viability, T/C [21] 107% | viability, T/C [22] 107% | viability, T/C [23] 103% | viability, T/C [24] 105% | viability, T/C [25] 106% | viability, T/C [26] 106% | viability, T/C [27] 103% | viability, T/C [28] 108% | viability, T/C [29] 113% | viability, T/C [30] 108% | viability, T/C [31] 107% | viability, T/C [32] 112% | viability, T/C [33] 117% | viability, T/C [34] 100% | viability, T/C [35] 122% | viability, T/C [36] 109%
> 10 µM: IC50 (second compound 0.0316 µM) | IC50 (second compound 0.1 µM) | IC50 (second compound 0.316 µM) | IC50 (second compound 1 µM) | IC50 (second compound 3.16 µM) | IC50 (second compound 10 µM)
